In patent US20050080113A1, “Medicinal compositions” (priority 2001, published 2005):

SMILES	melting point
CSc1ccc(-c2nc(-c3cccc(C)c3)c(-c3ccnc(NCc4ccccc4)c3)s2)cc1 [D 19-17, N-benzyl-N-[4-[4-(3-methylphenyl)-2-(4-methylthiophenyl)-1,3-thiazol-5-yl]-2-pyridyl]amine]	134 to 136 °C
CC(C)(C)OC(=O)N1CCC(c2nc(-c3cccc(Cl)c3)c(-c3ccnc(N)c3)s2)CC1 [H 80, 4 [2 (1 tert-butoxycarbonylpiperidin-4 yl)-4 (3 chlorophenyl)-1,3 thiazol-5 yl]-2 pyridylamine]	143 to 145 °C
Cc1cccc(-c2nc(N(C)C(=O)c3cccnc3)sc2-c2ccnc(NC3CCCC3)c2)c1 [L 65-3, N-methyl-N-[5 (2-cyclopentylamino-4 pyridyl)-4 (3 methylphenyl)-1,3 thiazol-2-yl]nicotinamide]	150 to 151 °C
O=C(Nc1nc(-c2ccc(F)cc2)c(-c2ccnc(NC3CCCCC3)c2)s1)c1cccnc1 [H 42-5, N-[5 (2 cyclohexylamino-4-pyridyl)-4 (4 fluorophenyl)-1,3 thiazol-2 yl]nicotinamide]	136 to 138 °C
Cc1cc(C)cc(-c2nc(-c3ccc([S+](C)[O-])cc3)sc2-c2ccnc(C)c2)c1 (centres unmarked) [H 56-1, 4 (3,5 dimethylphenyl)-5-(2 methyl-4 pyridyl)-2 (4 methylsulfinylphenyl)-1,3 thiazole]	151 to 153 °C
CCCCC(=O)Nc1cc(-c2sc(CC)nc2-c2cccc(Cl)c2)ccn1 [H 88-1, N-[4 [4 (3 chlorophenyl)-2-ethyl-1,3 thiazol-5 yl]-2 pyridyl]valeramide]	109 to 110 °C
Cc1cc(C)cc(-c2nc(-c3ccc([S+](C)[O-])cc3)sc2-c2cc(C)nc(C)c2)c1 (centres unmarked) [H 56-2, 4 (3,5 dimethylphenyl)-5-(2,6 dimethyl-4 pyridyl)-2 (4 methylsulfinylphenyl)-1,3-thiazole]	151 to 154 °C
CSc1ccc(-c2nc(-c3cccc(C)c3)c(-c3ccnc(NCCCc4ccccc4)c3)s2)cc1 [D 19-19, N-[4-[4-(3-methylphenyl)-2-(4-methylthiophenyl)-1,3-thiazol-5-yl]-2-pyridyl]-N-(3-phenylpropyl)amine]	106 to 107 °C
Cc1cccc(C2=NCSC2(c2ccnc(C)c2)N2CCOC2=O)c1 (centres unmarked) [H 65, 3 [4 (3 methylphenyl)-5 (2 methyl-4 pyridyl)-1,3 thiazol-5-yl]-oxazolidin-2 one]	80 to 82 °C
CC(C)(C)c1ccc(-c2nc(NC(=O)C3CCCC3)sc2-c2ccncc2)cc1 [23-168, N-[4 [4 (1,1 dimethylethyl)phenyl]-5 (4 pyridyl)-1,3 thiazol-2 yl]cyclopentanecarboxamide]	309 to 311 °C
CCc1nc(-c2cccc(Cl)c2)c(-c2ccnc(NC3CCCC3)c2)s1 [H 36-11, 4-[4-(3-chlorophenyl)-2-ethyl-1,3-thiazol-5-yl]-N-cyclopentyl-2-pyridylamine]	110 to 111 °C
CSc1ccc(-c2nc(-c3cccc(C)c3)c(-c3ccnc(NCCc4ccccc4)c3)s2)cc1 [D 19-18, N-[4-[4-(3-methylphenyl)-2-(4-methylthiophenyl)-1,3-thiazol-5-yl]-2-pyridyl]-N-(2-phenylethyl)amine]	137 to 139 °C
COc1ccc(-c2nc(NC(C)=O)sc2-c2ccnc(NC(C)=O)c2)cc1 [H 38, N-[5 (2 acetylamino-4 pyridyl)-4 (4 methoxyphenyl)-1,3-thiazol-2 yl]acetamide]	262 to 264 °C
Cc1cccc(-c2nc(NC(=O)c3ccc(Cl)nc3)sc2-c2ccnc(NC3CCCCC3)c2)c1 [H 44-1, 6 chloro-N-[5 (2-cyclohexylamino-4 pyridyl)-4 (3 methylphenyl)-1,3 thiazol-2-yl]nicotinamide]	255 to 256 °C
Cc1cccc(-c2nc(-c3ccc(F)cc3)sc2-c2ccnc(NCc3ccccc3)c2)c1 [D 19-11, N-benzyl-N-[4 [2 (4-fluorophenyl)-4 (3 methylphenyl)-1,3 thiazol-5 yl]-2-pyridyl]amine]	143 to 146 °C
Cc1cc(C)cc(-c2nc(NC(=O)Cc3ccccc3)sc2-c2ccncc2)c1 [23-196, N-[4 (3,5 dimethylphenyl)-5 (4 pyridyl)-1,3 thiazol-2 yl]-2-phenylacetamide]	226 to 229 °C
Cc1cccc(-c2nc(-c3ccc(S(C)(=O)=O)cc3)sc2-c2ccnc(NC(=O)c3ccc4ccccc4c3)c2)c1 [D 21-4, N-[4 [4 (3 methylphenyl)-2-(4 methylsulfonylphenyl)-1,3 thiazol-5 yl]-2 pyridyl]-2-naphthamide]	231 to 233 °C
Cc1cccc(-c2nc(-c3ccccc3Cl)sc2-c2ccnc(NCCCc3ccccc3)c2)c1 [D 19-16, N-[4 [2 (2 chlorophenyl)-4 (3 methylphenyl)-1,3 thiazol-5 yl]-2 pyridyl]-N-(3-phenylpropyl)amine]	101 to 102 °C
Nc1nc(-c2ccccc2)c(-c2ccncc2)s1 [13-15, [4-phenyl-5-(4-pyridyl)-1,3-thiazol-2-yl]amine]	248 to 250 °C
Cc1cccc(-c2nc(-c3ccc(F)cc3)sc2-c2ccnc(NCCc3ccccc3)c2)c1 [D 19-12, N-[4 [2 (4 fluorophenyl)-4 (3 methylphenyl)-1,3 thiazol-5 yl]-2 pyridyl]-N-(2-phenylethyl)amine]	97 to 98 °C

Results, then the compound that gave them:

melting point	SMILES
180 to 182 °C	Cc1cccc(-c2nc(N3CCN(c4ccccc4)C3=O)sc2-c2ccnc(C)c2)c1 [H 67, 1 [4 (3 methylphenyl)-5 (2 methyl-4 pyridyl)-1,3 thiazol-2-yl]-3 phenylimidazolidin-2 one]
194 to 195 °C	CONC(=O)Nc1nc(-c2cccc(C)c2)c(-c2ccnc(C)c2)s1 [H 63, N-methoxy-N′-[4 (3 methylphenyl)-5 (2 methyl-4 pyridyl)-1,3-thiazol-2 yl]urea]
84 to 85 °C	CCCCCC(=O)Nc1cc(-c2sc(CC)nc2-c2cccc(C)c2)ccn1 [H 87-2, N-[4 [2 ethyl-4 (3-methylphenyl)-1,3 thiazol-5 yl]-2 pyridyl]hexanamide]
247 to 250 °C	COc1ccc(-c2nc(NC(C)=O)sc2-c2ccnc(N)c2)cc1 [H 50, N-[5 (2 amino-4 pyridyl)-4-(4 methoxyphenyl)-1,3 thiazol-2 yl]acetamide]
99 to 102 °C	CC(=O)Nc1cc(-c2sc(C(C)O)nc2-c2cccc(C)c2)ccn1 (centres unmarked) [H 111-1, N-[4 [2 (1 hydroxyethyl)-4-(3 methylphenyl)-1,3 thiazol-5 yl]-2 pyridyl]acetamide]
168 to 169 °C	Cc1cccc(-c2nc(NC(=O)Nc3ccccc3)sc2-c2ccnc(C)c2)c1 [H 53-4, N-[4 (3 methylphenyl)-5-(2 methyl-4 pyridyl)-1,3 thiazol-2 yl]-N′-phenylurea]
178 to 179 °C	CCc1nc(-c2cccc(C#N)c2)c(-c2ccnc(N)c2)s1 [H 76, 4 [4 (3 cyanophenyl)-2 ethyl-1,3 thiazol-5 yl]-2 pyridylamine]
131 to 132 °C	Cc1cccc(-c2nc(CC(F)(F)F)sc2-c2ccnc(N)c2)c1 [H 18-3, 4 [4 (3 methylphenyl)-2-(2,2,2 trifluoroethyl)-1,3 thiazol-5 yl]-2 pyridylamine]
104 to 105 °C	Cc1cccc(-c2nc(-c3ccc(Cl)cc3)sc2-c2ccnc(C)c2)c1 [H 14-2, 2 (4 chlorophenyl)-4 (3-methylphenyl)-5 (2 methyl-4 pyridyl)-1,3 thiazole]
92 to 93 °C	CCCCc1nc(-c2cccc(C)c2)c(-c2ccnc(NC(=O)Cc3ccccc3)c2)s1 [D 15-4, N-[4-[2-butyl-4-(3-methylphenyl)-1,3-thiazol-5-yl]-2-pyridyl]phenylacetamide]
110 to 111 °C	CCc1nc(-c2cccc(C)c2)c(-c2ccnc(NC(=O)c3ccc(F)cc3)c2)s1 [L 39-5, N-[4 [2 ethyl-4 (3-methylphenyl)-1,3 thiazol-5 yl]-2 pyridyl]-4 fluorobenzamide]
89 to 91 °C	Cc1cccc(-c2nc(C(C)OC(=O)c3ccccc3)sc2-c2ccnc(N)c2)c1 (centres unmarked) [H 99-2, 1 [5 (2 amino-4 pyridyl)-4-(3 methylphenyl)-1,3 thiazol-2 yl]ethyl benzoate]
105 to 106 °C	CCc1nc(-c2cccc(C)c2)c(-c2ccnc(NC(=O)c3ccc(C)cc3)c2)s1 [L 39-3, N-[4 [2 ethyl-4 (3-methylphenyl)-1,3 thiazol-5 yl]-2 pyridyl]-4 methylbenzamide]
73 to 74 °C	Cc1cccc(-c2nc(-c3ccccc3F)sc2-c2ccnc(C)c2)c1 [H 14-3, 2 (2 fluorophenyl)-4 (3-methylphenyl)-5 (2 methyl-4 pyridyl)-1,3 thiazole]
111 to 112 °C	CSCc1nc(-c2cccc(Cl)c2)c(-c2ccnc(N)c2)s1 [H 101-1, 4 [4 (3 chlorophenyl)-2-(methylthio)methyl-1,3 thiazol-5 yl]-2 pyridylamine]
79 to 80 °C	Cc1cccc(-c2nc(-c3ccccc3)sc2-c2ccnc(C)c2)c1 [H 14-6, 4 (3 methylphenyl)-5 (2-methyl-4 pyridyl)-2 phenyl-1,3 thiazole]
222 to 223 °C	CC(=O)Nc1cc(-c2sc(-c3ccc(S(C)(=O)=O)cc3)nc2-c2cccc(C)c2)ccn1 [H 98-1, N-[4 [4 (3 methylphenyl)-2-(4 methylsulfonylphenyl)-1,3 thiazol-5 yl]-2 pyridyl]acetamide]
219 to 220 °C	Cc1cc(C)cc(-c2nc(N)sc2-c2ccnc(C)c2)c1 [H 7-5, [4 (3,5 dimethylphenyl)-5-(2 methyl-4 pyridyl)-1,3 thiazol-2 yl]amine]
91 to 92 °C	Cc1cccc(-c2ncsc2-c2ccnc(N)c2)c1 [H 27-1, 4 [4 (3 methylphenyl)-1,3-thiazol-5 yl]-2 pyridylamine]
144 to 145 °C	CCCc1nc(-c2cccc(Cl)c2)c(-c2ccnc(NC(C)=O)c2)s1 [H 30-3, N-[4-[4-(3-chlorophenyl)-2-propyl-1,3-thiazol-5-yl]-2-pyridyl]acetamide]
160 to 162 °C	CCNC(=O)Nc1cc(-c2sc(CC)nc2-c2cccc(C)c2)ccn1 [H 108, N-ethyl-N′-[4 [2 ethyl-4 (3 methylphenyl)-1,3 thiazol-5 yl]-2-pyridyl]urea]
